Consider 1 compound from patent publication US20030124554A1, “Screening method for compounds capable of modularing egr-1-regulated expression” (priority 2002, published 2003).

The assay deals with human cell co-culture system. The assay is described as follows: In vitro angiogenesis co-culture system (angiogenesis kit, TCS Biologicals), tubule formation. It counts as cell-based. The note with it: 11 days co-culture; PECAM-1 staining; Egr-1 DNA 0.5-2.5 μg per well, VEGF protein 2 ng/ml, suramin 20 μM. The procedure:
Egr-1 under the control of the hCMV promoter (Houston et al, Arterioscler. Thromb. Vasc. Biol., 19; 281-289, 1999) was transfected into a human cell co-culture system designed to measure angiogenesis in vitro. The angiogenesis kit (TCS Biologicals) was used as described according to the manufacturer's instructions using VEGF protein (2 ng/ml) and suramin (20 μM) as positive and negative controls respectively for angiogenesis.
Optimisation of transfection in the co-culture system was performed using pGL3 control luciferase (Promega) with 1.0 μg and 0.5 μg CMV-β gal as a normalising plasmid for transfection control. Two ratios of lipid: DNA (v/w) were used; 2:1 and 4:1 (FIG. 3a.). CMV Egr-1 DNA was transfected at 0.5, 1.0, 1.5 and 2.5 μg per well in triplicate in a 24 well microtitre plate using Mirus Transit reagent (Cambridge Biosciences) at a ratio of 2:1 v/w DNA. VEGF protein positive control and suramin negative control was added to triplicate wells. After 11 days co-culture angiogenesis was determined by staining of cells for the endothelial cell marker PECAM-1 and visualisation using BCIP/NBT substrate.
Representative images of tubule formation using all four doses of Egr-1 expression plasmid together with VEGF (positive control) and suramin (negative control) were captured and processed by image analysis using Quantimet 600 image analyser and associated software. […]

The structures appear in SMILES notation.

Turning to `Cc1ccc(C(=O)Nc2ccc(S(=O)(=O)O)c3cc(S(=O)(=O)O)cc(S(=O)(=O)O)c23)cc1NC(=O)c1cccc(NC(=O)Nc2cccc(C(=O)Nc3cc(C(=O)Nc4ccc(S(=O)(=O)O)c5cc(S(=O)(=O)O)cc(S(=O)(=O)O)c45)ccc3C)c2)c1` [suramin], the tubule formation entry is given as “Decreased tubule formation”.
